Test results reported in ChEMBL document CHEMBL1201862, “PubChem BioAssay data set” (2004).
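Cells were grown in 96-well plates and exposed to each compound for 48 hours at five concentrations; endpoints were interpolated linearly between bracketing concentrations, or set to the highest concentration if not reached. At the GI50, growth is halved.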 Activity calls are given as the source filed them. Rule as the data show it: active = GI50 up to about 1.1 µM and inactive = higher.

Experiments:
Assay in all cases: DTP human tumour cell line panel, 48 h
SK-MEL-28 = test system: SK-MEL-28
HOP-62 = test system: HOP-62
HT-29 = test system: HT-29
NCI-H226 = test system: NCI-H226
SF-268 = test system: SF-268
UO-31 = test system: UO-31
NCI-H23 = test system: NCI-H23
M19-MEL = test system: M19-MEL
KM-20L2 = test system: KM-20L2
SNB-19 = test system: SNB-19
MCF7 = test system: MCF7
DMS-273 = test system: DMS-273
OVCAR-3 = test system: OVCAR-3
SN12C = test system: SN12C
HOP-18 = test system: HOP-18
XF498 = test system: XF498
MOLT-4 = test system: MOLT-4
NCI-H460 = test system: NCI-H460
CCRF-CEM = test system: CCRF-CEM
ACHN = test system: ACHN

Measured: GI50

Cc1[nH]c(=O)[nH]c(=O)c1/C=C/C(=O)NC(CO)C[S+]([O-])Cc1ccccc1 (centres undefined)
inactive: SK-MEL-28 > 300 µM | HOP-62 > 300 µM | HT-29 > 300 µM | NCI-H226 > 300 µM | SF-268 > 300 µM | UO-31 > 300 µM | NCI-H23 > 300 µM | M19-MEL > 300 µM | KM-20L2 > 300 µM | SNB-19 > 300 µM | MCF7 > 300 µM | DMS-273 > 300 µM | OVCAR-3 > 300 µM | SN12C > 300 µM | HOP-18 > 289 µM | XF498 > 300 µM | MOLT-4 > 300 µM | NCI-H460 > 300 µM | CCRF-CEM > 300 µM

C=CC12CN(C)C3C4COC(CC41)C1(C(=O)Nc4ccccc41)C32 (centres undefined)
inactive: SK-MEL-28 175 µM | HOP-62 > 147 µM | HT-29 > 145 µM | NCI-H226 6.67 µM | SF-268 173 µM | UO-31 > 181 µM | NCI-H23 > 173 µM | M19-MEL > 148 µM | KM-20L2 > 151 µM | SNB-19 > 200 µM | MCF7 > 200 µM | DMS-273 > 200 µM | OVCAR-3 > 200 µM | SN12C > 200 µM | HOP-18 > 200 µM | XF498 21.5 µM | MOLT-4 > 200 µM | NCI-H460 166 µM | CCRF-CEM 96.6 µM

CCOC(=O)C(NC(C)=O)(Nc1ccc(F)cc1)C(F)(F)F (centres undefined)
inactive: SK-MEL-28 > 100 µM | HT-29 > 100 µM | SF-268 > 100 µM | UO-31 34.8 µM | NCI-H23 > 100 µM | SNB-19 > 100 µM | MCF7 28.2 µM | OVCAR-3 > 100 µM | SN12C > 100 µM | ACHN 2.62 µM | MOLT-4 90.6 µM | NCI-H460 7.21 µM | CCRF-CEM > 100 µM

COc1cc2c(cc1OC)C1Cc3sccc3CN1CC2 (centres undefined)
inactive: HOP-62 > 100 µM | HT-29 > 100 µM | NCI-H226 > 100 µM | SF-268 > 100 µM | UO-31 > 100 µM | NCI-H23 > 100 µM | M19-MEL > 100 µM | KM-20L2 > 100 µM | SNB-19 > 100 µM | DMS-273 > 100 µM | OVCAR-3 > 100 µM | SN12C > 100 µM | HOP-18 > 100 µM | XF498 > 100 µM | ACHN > 100 µM | MOLT-4 > 100 µM | NCI-H460 > 100 µM | CCRF-CEM > 100 µM

O=C1C(Cl)N(c2ccc(Cl)cc2Cl)C1c1c[nH]c2ccccc12 (centres undefined)
inactive: SK-MEL-28 > 100 µM | HOP-62 > 100 µM | HT-29 > 100 µM | SF-268 > 100 µM | UO-31 4.75 µM | NCI-H23 92.3 µM | M19-MEL > 100 µM | KM-20L2 > 100 µM | SNB-19 6.01 µM | OVCAR-3 78.3 µM | SN12C > 100 µM | XF498 > 100 µM | MOLT-4 > 100 µM | NCI-H460 > 100 µM | CCRF-CEM > 100 µM
